{"source": "patent US12383526B2", "about": "“Optimized sigma-1 agonist method of responder selection and treatment” (ANAVEX LIFE SCIENCES CORP., priority 2018, dated 2025)", "tested_on": "subjects with mild-to-moderate AD", "experiment": "ADCS-ADL (Activities of Daily Living) change from baseline, 57-week Phase 2a study and 208-week extension study", "format": "in vivo, human", "design": "key to unadjusted change in ADCS-ADL score, Mean ± Std. Dev: change from baseline on ADCS-ADL scale 0–78, higher = greater function", "conditions": "for ADCS-ADL Cohen's d: week 57, compared to standard of care", "source_text": "The present study integrates and analyzes data and samples from two consecutive clinical trials: 57-week study and 208-week study. 57-week study was a multicenter Phase 2a clinical trial of the drug ANAVEX2-73 that recruited a sample of 32 subjects with mild-to-moderate AD. It consisted of two parts: Part A was a simple randomized, open-label, two-period, cross-over, adaptive trial lasting up to 5 weeks. Each period involved one specific administration route and two possible dose levels: in one period the oral dose (30 mg or 50 mg) was administrated and in the other period an intravenous (IV) form (3 mg or 5 mg) was administered, making a total of 8 possible dose administration schemes in Part A (details available in FIG. 2A). The two periods were separated by a wash-out period of 12 days where no dose was given.\nPart B, following immediately after Part A, was an open-label extension of the oral daily dose for an additional 52 weeks. The primary endpoint of 57-week study was to establish the safety and tolerability of the drug. Secondary endpoints aimed at establishing the relationship between dosing regimen and pharmacodynamics-exploratory efficacy outcomes of cognition and function. Cognition was assessed by the Mini Mental State Examination (MMSE), while functional abilities by the Alzheimer's Disease Co-operative Study—Activities of Daily Living Inventory (ADCS-ADL). Additional cognitive measures included the Cogstate Brief Battery (CBB), and functional measures of Electroencephalography and Event-Related Potential (EEG and ERP). Part B continued an adaptive oral administration scheme. Table 12 summarizes mean oral dose administration during the 57-week study study.\nDue to favorable safety and tolerability profile of the 57-week study (Table 2), and in response to requests from patients and caregivers, a 208-week open-label extension study (208-week study) was carried out immediately after completion of 57-week study Part B. 208-week study enrolled the 24 subjects who completed Part B and applied similarly an adaptive daily oral administration scheme. ANAVEX2-73-003 involves continuous evaluation of safety and efficacy as measured by the MMSE and ADCS-ADL. At week 148 (interim time point for analyses), data on the subjects remaining in the study (n=21) was analyzed for efficacy outcomes. This report was drafted using data available at week 148, while ANAVEX2-73-003 is still ongoing.\nExploratory clinical efficacy in this study was defined as change from baseline of each patient's cognitive (MMSE) and functional ability (ADCS-ADL) scores. The MMSE57 is a widely used, validated instrument in clinical AD research, including as a cognitive outcome measure in drug trials. The range of the scale is from 0 to 30, with a higher score indicating higher cognitive function. The ADCS-ADL58 is undertaken in a structured caregiver interview format and assesses performance in activities of daily living of patients with AD. The scale is from 0 to 78, with a higher score indicating greater function. The ADCS-ADL has shown to have good test-retest reliability 59. The MMSE and the ADCS-ADL were assessed during pre-specified clinical site visits across 14 different time points during the 57-week study (Weeks 0 and 5 in Part A; Weeks 17, 31, 41, 53, and 57 in Part B), and 208-week study (Weeks 70, 83, 96, 109, 122, 135, and 148) studies.\nCorresponding Delta scores were calculated using the difference between values at each visit and at baseline for each individual patient, with a focus on Week 57. In addition, to lower the impact of noise in MMSE and ADCS-ADL scores, a Slope was estimated using a linear regression across all available time points for each individual patient. The derived scores describe the progression of exploratory efficacy data from baseline at several specific time points (Deltas) and over a set period of time (Slope). […]", "note": "Marks after values point to notes of the source that are not given here."}
{"smiles": "CN(C)CC1CCOC1(c1ccccc1)c1ccccc1.Cl", "note": "(centres unmarked) [ANAVEX2-73, tetrahydro-N,N-dimethyl-2,2-diphenyl-3-furanmethanamine hydrochloride]", "values": [{"measurement": "unadjusted change in ADCS-ADL score, Mean ± Std. Dev", "setting": "Group 3 (n 11), Week 70", "result": "−5.09 ± 10.70"}, {"measurement": "unadjusted change in ADCS-ADL score, Mean ± Std. Dev", "setting": "Group 3 (n 11), Week 83", "result": "−5.55 ± 12.65"}, {"measurement": "unadjusted change in ADCS-ADL score, Mean ± Std. Dev", "setting": "Group 3 (n 11), Week 96", "result": "−8.64 ± 16.10"}, {"measurement": "unadjusted change in ADCS-ADL score, Mean ± Std. Dev", "setting": "Group 3 (n 11), Week 109", "result": "−9.45 ± 15.13"}, {"measurement": "unadjusted change in ADCS-ADL score, Mean ± Std. Dev", "setting": "Group 3 (n 11), Week 122", "result": "−9.27 ± 12.17"}, {"measurement": "unadjusted change in ADCS-ADL score, Mean ± Std. Dev", "setting": "Group 3 (n 11), Week 135", "result": "11.09 ± 16.16"}, {"measurement": "unadjusted change in ADCS-ADL score, Mean ± Std. Dev", "setting": "Group 3 (n 11), Week 148", "result": "−14.73 ± 17.70"}, {"measurement": "unadjusted change in ADCS-ADL score, Mean ± Std. Dev", "setting": "Group 4 (n 14), Week 148", "result": "−19.43 ± 18.50"}, {"measurement": "unadjusted change in ADCS-ADL score, Mean ± Std. Dev", "setting": "Group 4 (n 15), Week 109", "result": "−12.60 ± 15.00"}, {"measurement": "unadjusted change in ADCS-ADL score, Mean ± Std. Dev", "setting": "Group 4 (n 15), Week 122", "result": "−15.20 ± 17.30"}, {"measurement": "unadjusted change in ADCS-ADL score, Mean ± Std. Dev", "setting": "Group 4 (n 16), Week 0", "result": "0.00 ± 0.00"}, {"measurement": "unadjusted change in ADCS-ADL score, Mean ± Std. Dev", "setting": "Group 4 (n 16), Week 5", "result": "−1.25 ± 5.54"}, {"measurement": "unadjusted change in ADCS-ADL score, Mean ± Std. Dev", "setting": "Group 4 (n 16), Week 17", "result": "−0.44 ± 3.42"}, {"measurement": "unadjusted change in ADCS-ADL score, Mean ± Std. Dev", "setting": "Group 4 (n 16), Week 31", "result": "−2.31 ± 6.00"}, {"measurement": "unadjusted change in ADCS-ADL score, Mean ± Std. Dev", "setting": "Group 4 (n 16), Week 41", "result": "−3.31 ± 7.03"}, {"measurement": "unadjusted change in ADCS-ADL score, Mean ± Std. Dev", "setting": "Group 4 (n 16), Week 53", "result": "3.81 ± 7.24"}, {"measurement": "unadjusted change in ADCS-ADL score, Mean ± Std. Dev", "setting": "Group 4 (n 16), Week 57", "result": "−3.38 ± 7.60"}, {"measurement": "unadjusted change in ADCS-ADL score, Mean ± Std. Dev", "setting": "Group 4 (n 16), Week 70", "result": "−6.94 ± 10.87"}, {"measurement": "unadjusted change in ADCS-ADL score, Mean ± Std. Dev", "setting": "Group 4 (n 16), Week 96", "result": "−13.25 ± 16.77"}, {"measurement": "unadjusted change in ADCS-ADL score, Mean ± Std. Dev", "setting": "Group 4 (n 16), Week 135", "result": "−19.12 ± 19.67"}, {"measurement": "unadjusted change in ADCS-ADL score, Mean ± Std. Dev", "setting": "Group 5 (n 4), Week 5", "result": "−3.25 ± 11.30"}, {"measurement": "unadjusted change in ADCS-ADL score, Mean ± Std. Dev", "setting": "Group 5 (n 4), Week 31", "result": "−8.75 ± 3.30"}, {"measurement": "unadjusted change in ADCS-ADL score, Mean ± Std. Dev", "setting": "Group 5 (n 4), Week 122", "result": "−27.75 ± 12.26"}, {"measurement": "unadjusted change in ADCS-ADL score, Mean ± Std. Dev", "setting": "Group 5 (n 5), Week 0", "result": "0.00 ± 0.00"}, {"measurement": "unadjusted change in ADCS-ADL score, Mean ± Std. Dev", "setting": "Group 5 (n 5), Week 17", "result": "−4.20 ± 4.09"}, {"measurement": "unadjusted change in ADCS-ADL score, Mean ± Std. Dev", "setting": "Group 5 (n 5), Week 41", "result": "6.00 ± 3.00"}, {"measurement": "unadjusted change in ADCS-ADL score, Mean ± Std. Dev", "setting": "Group 5 (n 5), Week 53", "result": "−10.00 ± 6.78"}, {"measurement": "unadjusted change in ADCS-ADL score, Mean ± Std. Dev", "setting": "Group 5 (n 5), Week 57", "result": "−11.20 ± 8.93"}, {"measurement": "unadjusted change in ADCS-ADL score, Mean ± Std. Dev", "setting": "Group 5 (n 5), Week 70", "result": "−14.80 ± 9.63"}, {"measurement": "unadjusted change in ADCS-ADL score, Mean ± Std. Dev", "setting": "Group 5 (n 5), Week 83", "result": "−13.20 ± 11.52"}, {"measurement": "unadjusted change in ADCS-ADL score, Mean ± Std. Dev", "setting": "Group 5 (n 5), Week 96", "result": "−18.60 ± 11.67"}, {"measurement": "unadjusted change in ADCS-ADL score, Mean ± Std. Dev", "setting": "Group 5 (n 5), Week 109", "result": "−19.20 ± 13.31"}, {"measurement": "unadjusted change in ADCS-ADL score, Mean ± Std. Dev", "setting": "Group 5 (n 5), Week 135", "result": "−24.00 ± 14.65"}, {"measurement": "unadjusted change in ADCS-ADL score, Mean ± Std. Dev", "setting": "Group 5 (n 5), Week 148", "result": "−26.00 ± 16.17"}, {"measurement": "unadjusted change in ADCS-ADL score, Mean ± Std. Dev", "setting": "Group 6 (n 2), Week 5", "result": "0.50 ± 9.19"}, {"measurement": "unadjusted change in ADCS-ADL score, Mean ± Std. Dev", "setting": "Group 6 (n 2), Week 31", "result": "−10.50 ± 3.54"}, {"measurement": "unadjusted change in ADCS-ADL score, Mean ± Std. Dev", "setting": "Group 6 (n 3), Week 0", "result": "0.00 ± 0.00"}, {"measurement": "unadjusted change in ADCS-ADL score, Mean ± Std. Dev", "setting": "Group 6 (n 3), Week 17", "result": "−5.00 ± 5.20"}, {"measurement": "unadjusted change in ADCS-ADL score, Mean ± Std. Dev", "setting": "Group 6 (n 3), Week 41", "result": "−6.67 ± 4.04"}, {"measurement": "unadjusted change in ADCS-ADL score, Mean ± Std. Dev", "setting": "Group 6 (n 3), Week 53", "result": "−12.67 ± 8.02"}, {"measurement": "unadjusted change in ADCS-ADL score, Mean ± Std. Dev", "setting": "Group 6 (n 3), Week 57", "result": "−14.67 ± 10.50"}, {"measurement": "unadjusted change in ADCS-ADL score, Mean ± Std. Dev", "setting": "Group 6 (n 3), Week 70", "result": "−18.00 ± 12.12"}, {"measurement": "unadjusted change in ADCS-ADL score, Mean ± Std. Dev", "setting": "Group 6 (n 3), Week 83", "result": "−17.00 ± 14.11"}, {"measurement": "unadjusted change in ADCS-ADL score, Mean ± Std. Dev", "setting": "Group 6 (n 3), Week 96", "result": "−26.00 ± 8.19"}, {"measurement": "unadjusted change in ADCS-ADL score, Mean ± Std. Dev", "setting": "Group 6 (n 3), Week 109", "result": "25.33 ± 14.47"}, {"measurement": "unadjusted change in ADCS-ADL score, Mean ± Std. Dev", "setting": "Group 6 (n 3), Week 122", "result": "−32.67 ± 8.96"}, {"measurement": "unadjusted change in ADCS-ADL score, Mean ± Std. Dev", "setting": "Group 6 (n 3), Week 135", "result": "−32.00 ± 13.75"}, {"measurement": "unadjusted change in ADCS-ADL score, Mean ± Std. Dev", "setting": "Group 6 (n 3), Week 148", "result": "−34.33 ± 15.82"}, {"measurement": "favorable difference in adjusted ADCS-ADL, higher concentration arm compared with low/medium arm", "setting": "MMRM-LME, over 148 weeks", "result": 88, "unit": "%"}, {"measurement": "effect of higher concentrations on Delta ADCS-ADL scores", "setting": "plasma concentration groups, week 57, p=0.03", "result": "improved"}, {"measurement": "ADCS-ADL Cohen's d", "setting": "Absence of COMT_L146fs variant & Baseline MMSE ≥20, N 11", "result": "0.89**"}, {"measurement": "ADCS-ADL Cohen's d", "setting": "Absence of COMT_L146fs variant, N 16", "result": "0.57*"}, {"measurement": "ADCS-ADL Cohen's d", "setting": "Absence of SIGMAR1_Q2P variant, N 16", "result": 0.43}, {"measurement": "ADCS-ADL Cohen's d", "setting": "Absence of SIGNAR1_Q2P variant & Baseline MMSE ≥20, N 11", "result": "0.76*"}, {"measurement": "ADCS-ADL Cohen's d", "setting": "All, N 21", "result": 0.18}, {"measurement": "ADCS-ADL Cohen's d", "setting": "Baseline MMSE ≥20, N 13", "result": "0.66*"}]}
